Assay results reported in US12171768B2, “IRAK4 degraders and uses thereof” (priority 2021, dated 2024).

Experiment: Diastereomer interconversion
Assay type: physicochemical
Settings: in vitro and in vivo

## Cn1c(=O)n([C@H]2CCC(=O)NC2=O)c2cccc(C#CCOC3CCN(C[C@H]4CC[C@H](n5cc(NC(=O)c6cnn7ccc(N8C[C@H]9C[C@@H]8CO9)nc67)c(C(F)F)n5)CC4)CC3)c21 [Compound B, 5-((1R,4R)-2-oxa-5-azabicyclo[2.2.1]heptan-5-yl)-N-(3-(difluoromethyl)-1-((1r,4R)-4-((4-((3-(1-((S)-2,6-dioxopiperidin-3-yl)-3-methyl-2-oxo-2,3-dihydro-1H-benzo[d]imidazol-4-yl)prop-2-yn-1-yl)oxy)piperidin-1-yl)methyl)cyclohexyl)-1H-pyrazol-4-yl)pyrazolo[1,5-a]pyrimidine-3-carboxamide]
  Diastereomer interconversion: interconvert rapidly

## Cn1c(=O)n([C@@H]2CCC(=O)NC2=O)c2cccc(C#CCOC3CCN(C[C@H]4CC[C@H](n5cc(NC(=O)c6cnn7ccc(N8C[C@H]9C[C@@H]8CO9)nc67)c(C(F)F)n5)CC4)CC3)c21 [Compound C, 5-((1R,4R)-2-oxa-5-azabicyclo[2.2.1]heptan-5-yl)-N-(3-(difluoromethyl)-1-((1r,4R)-4-((4-((3-(1-((R)-2,6-dioxopiperidin-3-yl)-3-methyl-2-oxo-2,3-dihydro-1H-benzo[d]imidazol-4-yl)prop-2-yn-1-yl)oxy)piperidin-1-yl)methyl)cyclohexyl)-1H-pyrazol-4-yl)pyrazolo[1,5-a]pyrimidine-3-carboxamide]
  Diastereomer interconversion: interconvert rapidly
